Measured values from patent publication US20110236359A1 (priority 2007, published 2011).

What was measured:
[1] = test system: vancomycin-resistant Enterococcus faecium (VRE) clinical isolate; experiment: Agar well-diffusion assay against VRE clinical isolate; format: cell-based; details: all concentrations evaluated between 0 to 800 μg/ml; data not shown
Experimental: A clinical isolate of vancomycin-resistant Enterococcus faecium (VRE) was provided by the Centre Hospitalier de l'Université de Montréal microbiology laboratory (CHUM; Montreal, QC, Canada). […] The E. faecium strain was maintained in brain-heart infusion (BHI; Difco) for E. faecium containing 10% glycerol (w/v).
An agar well-diffusion assay was performed to verify the antimicrobial capacity of the neutralized cell-free supernatant (CFS) against a VRE clinical isolate. CFS was obtained as described before. A volume of 30 ml of cooled (45° C.) sterile BHI agar, containing 0.75% agar, was inoculated with 10^7 colony-forming units (CFU)/ml of VRE, poured into a […] standard Petri dishes and allowed to solidify for 30 minutes at room temperature. Wells of 6 mm in diameter were cut-out and […] of antimicrobial agent were placed into each well. All plates were then placed at 4° C. for 30 minutes, incubated at 37° C. for 24 h and examined for inhibition zones. Inhibition was scored positive if the width of the clearing zone around the well was 0.5 mm. Antibiotics were also evaluated with this method to ascertain the resistance of the VRE strain. Vancomycin and clindamycin (Sigma-Aldrich, Oakville, ON, Canada) were used in concentrations ranging from 0 to 800 μg/ml. […]

[2] = test system: Lactobacillus rhamnosus GG (ATCC 53103); experiment: Antibiotic MIC plates (resistance profile); format: cell-based; details: Lacticaseibacillus rhamnosus, ATCC53103
Excerpt: (§1) The protocol was adapted from Delgado et al. (2005). Minimum Inhibitory Concentration (MIC) Plate (# GPN3F) and Anaerobe MIC Plate (# AN02B) were used to determine the antibiotic sensitivity and resistance profile of MM19 and MM33 according to the instructions of the manufacturer (Trek Diagnostic Systems; Nova Century, Burlington, ON, Canada).
(§2) Lactococcus lactis subsp. lactis MM19, Pediococcus acidilactici MM33 and Lactobacillus rhamnosus GG (ATCC 53103) from frozen glycerol stock were first inoculated in Lactobacilli MRS and incubated at 37° C. for 18 h. 100 μl of this culture were further incubated under the same conditions. This second culture was then inoculated on a MRS agar plate and incubated at 37° C. for 48 h under anaerobic conditions using GasPak Plus system (BD BBL, Sparks, Md., USA).

[3] = test system: Lactococcus lactis subsp. lactis MM19; experiment: Antibiotic MIC plates (resistance profile); format: cell-based; details: Lactococcus lactis
Excerpt: as §1, §2

[4] = test system: Pediococcus acidilactici MM33; experiment: Antibiotic MIC plates (resistance profile); format: cell-based; details: Pediococcus acidilactici, MM33
Excerpt: as §1, §2

[5] = test system: L. monocytogenes HPB 2812 serotype ½a; experiment: Inhibitory activity of purified pediocin on growth in broth; format: cell-based, Listeria monocytogenes; details: for Viable counts: from 9.14
Experimental: Different amounts of purified bacteriocin (0 to 800 AU/ml) were added to cultures of L. monocytogenes HPB 2812 serotype ½a in early exponential phase (grown for 6 h) and incubated at 37° C. Bacterial growth was monitored by measuring the bacterial population in a 1 ml sample taken every 2 h of incubation. These samples were serially diluted ten-fold in peptone water (0.1% w/v), pour-plated in BHI agar and then incubated at 37° C. for 24 h. Colonies were counted using Darkfield Quebec Colony Counter (American Optical, Scientific instrument division, Keene, Ohio, USA).

Compound | Sensitivity of the VRE clinical isolate (in words) [1] | MIC [2] | MIC [3] | MIC [4] | Decrease in viable CFU ml^−1 ([5]; at least 200 AU ml^−1 added into the culture medium) | Viable counts ([5]; two hours after addition of 100 AU ml^−1) | Viable counts ([5]; two hours after addition of 200 AU ml^−1) | Viable counts ([5]; two hours after addition of 400 AU ml^−1) | Viable counts ([5]; two hours after addition of 800 AU ml^−1)
CN[C@H](CC(C)C)C(=O)N[C@H]1C(=O)N[C@@H](CC(N)=O)C(=O)N[C@H]2C(=O)N[C@H]3C(=O)N[C@H](C(=O)N[C@H](C(=O)O)c4cc(O)cc(O)c4-c4cc3ccc4O)[C@H](O)c3ccc(c(Cl)c3)Oc3cc2cc(c3O[C@@H]2O[C@H](CO)[C@@H](O)[C@H](O)[C@H]2O[C@H]2C[C@](C)(N)[C@H](O)[C@H](C)O2)Oc2ccc(cc2Cl)[C@H]1O [VAN, Vancomycin] | resistant | > 128 µg/mL | < 1 µg/mL | > 128 µg/mL | – | – | – | – | –
pediocin (KYYGNGVTCGKHSCSVDWGKATTCIINNGAMAWATGGHQGNHKC; Pediococcus acidilactici MM33) | – | – | – | – | more than 99.9% | 8.7 log CFU ml^−1 | 6.0 log CFU ml^−1 | 4.36 log CFU ml^−1 | 2.81 log CFU ml^−1
